Data taken from patent EP0414533A1, “Use of iodopropargyl esters of alpha-amino acid derivatives as antimicrobial agents” (ROHM AND HAAS COMPANY, priority 1989, dated 1991).
Values after ≈ are worked out from the molar mass of the structure shown. Values joined by “and” are separate entries in the source; they are usually repeats but may differ in a detail not shown here. Equal entries are not always repeated. Structures can show the parent of a compound that is named as a salt. Where two headings read alike, the source gives them in different places.

How the values were obtained:
[1] = tested on: Aspergillus niger (ANIG); experiment: Minimum inhibitory concentration (MIC), broth two-fold serial dilution test; assay type: cell-based; settings: M9G (minimal salts media with glucose), Table IIIa; for MIC: Aspergillus niger, read-out: MIC (F) ANIG
[2] = tested on: Aureobasidium pullulans (APUL); experiment: as above; assay type: cell-based; settings: M9G (minimal salts media with glucose), Table IIIa; for MIC: Aureobasidium pullulans, read-out: MIC (F) APUL
[3] = tested on: Fusarium roseum (FUS); experiment: In-vitro plant fungicide test; assay type: cell-based; settings: Table IVa, *=Phytotoxic; for inhibition of growth at 25 ppm: Fusarium sambucinum, read-out: % Control at 25 ppm FUS, 25 ppm
[4] = tested on: Phytophthora capsici (PHY); experiment: In-vitro plant fungicide test; assay type: cell-based; settings: 25 ppm, Table IVa; for inhibition of growth at 25 ppm: Phytophthora capsici, read-out: % Control at 25 ppm PHY
[5] = tested on: Piricularia oryzae (PIR); experiment: microbe, parasite or virus in culture; assay type: cell-based; settings: for inhibition of growth at 25 ppm: read-out: % Control at 25 ppm PIR
[6] = tested on: Pythium ultimum (PYU); experiment: In-vitro plant fungicide test; assay type: cell-based; settings: 25 ppm, Table IVa; for inhibition of growth at 25 ppm: Globisporangium ultimum, read-out: % Control at 25 ppm PYU
[7] = tested on: Rhizoctonia solani (RHI); experiment: In-vitro plant fungicide test; assay type: cell-based; settings: 25 ppm, Table IVa; for inhibition of growth at 25 ppm: Rhizoctonia solani, read-out: % Control at 25 ppm RHI
[8] = tested on: Septoria nodorum (SEP); experiment: In-vitro plant fungicide test; assay type: cell-based; settings: 25 ppm, Table IVa; for inhibition of growth at 25 ppm: Parastagonospora nodorum, read-out: % Control at 25 ppm SEP
[9] = tested on: Xanthomonas campestris (XAN); experiment: In-vitro plant fungicide test; assay type: cell-based; settings: 25 ppm, Table IVa; for inhibition of growth at 25 ppm: Xanthomonas campestris, read-out: % Control at 25 ppm XAN
[10] = tested on: THREE FUNGI; experiment: MIC test against three fungi in Mycophile Broth, pH 5.0, read after 8 days (Table VII); assay type: cell-based; settings: for MIC: 192 h
[11] = tested on: Pseudomonas fluorescens (PSFL); experiment: Minimum inhibitory concentration (MIC), broth two-fold serial dilution test; settings: Pseudomonas fluorescens, read-out: MIC (G-) PSFL, M9G (minimal salts media with glucose); Table IIIa
[12] = tested on: Pseudomonas aerugenosa (PSAE); experiment: as above; settings: Table IIIa; for MIC: Pseudomonas, read-out: MIC (G-) PSAE, M9G (minimal salts media with glucose); for MIC (G-) PSAE: M9G (minimal salts media with glucose), trifluoroacetate
[13] = tested on: Escherichia coli (ECOL); experiment: as above; settings: Table IIIa; for MIC: Escherichia coli, read-out: MIC (G-) ECOL, M9G (minimal salts media with glucose); for MIC (G-) ECOL: M9G (minimal salts media with glucose), trifluoroacetate
[14] = tested on: Staphylococcus aureus (SAUR); experiment: as above; settings: Table IIIa; for MIC: Staphylococcus aureus, read-out: MIC (G+) SAUR, M9G (minimal salts media with glucose)
[15] = tested on: Botrytis cinerea (BOC); experiment: In-vitro plant fungicide test; assay type: cell-based; settings: 25 ppm, Table IVa, *=Phytotoxic; for inhibition of growth at 25 ppm: Botrytis cinerea, read-out: % Control at 25 ppm BOC
[16] = tested on: Cochliobolus sativus (HEL); experiment: In-vitro plant fungicide test; assay type: cell-based; settings: 25 ppm, Table IVa, *=Phytotoxic; for inhibition of growth at 25 ppm: Bipolaris sorokiniana, read-out: % Control at 25 ppm HEL
[17] = Aspergillus niger, serial dilutions from 50 ppm, read after 8 days of incubation, read-out: MIC ANIG
[18] = Aureobasidium pullulans, serial dilutions from 50 ppm, read after 8 days of incubation, read-out: MIC APUL
[19] = Gloeophyllum trabeum, serial dilutions from 50 ppm, read after 8 days of incubation, read-out: MIC GTRA
[20] = Aspergillus niger, pH 5, read-out: MIC ANIG, Aspergillus niger, serial dilutions from 50 ppm, read after 8 days of incubation
[21] = Aureobasidium pullulans, pH 5, read-out: MIC APUL, Aureobasidium pullulans, serial dilutions from 50 ppm, read after 8 days of incubation
[22] = Gloeophyllum trabeum, pH 5, read-out: MIC GTRA, Gloeophyllum trabeum, serial dilutions from 50 ppm, read after 8 days of incubation

SMILES	MIC [1]	MIC [2]	% Control at 25 ppm FUS [3]	inhibition of growth at 25 ppm [3]	inhibition of growth at 25 ppm [4]	inhibition of growth at 25 ppm [5]	inhibition of growth at 25 ppm [6]	inhibition of growth at 25 ppm [7]	inhibition of growth at 25 ppm [8]	inhibition of growth at 25 ppm [9]	MIC [10, 17]	MIC [10, 18]	MIC [10, 19]	MIC [11]	MIC [12]	MIC [13]	MIC [14]	% Control at 25 ppm SEP [8]	inhibition of growth at 25 ppm [15]	inhibition of growth at 25 ppm [16]	also measured
CC(C)(C)OC(=O)N[C@@H](CSCc1ccccc1)C(=O)OCC#CI [Compound 4, N-t-butoxycarbonyl-S-benzyl-L-cysteine iodopropargyl ester]	3 µg/mL	3 µg/mL	100%	95%	100%	100%	100%	100%	100%	0%	50 µg/mL (≈ 105 µM)	50 µg/mL (≈ 105 µM)	6.2 µg/mL (≈ 13 µM)	> 10 µg/mL	> 100 µg/mL	> 100 µg/mL	25 µg/mL	–	–	–	–
C[C@@H](OCc1ccccc1)[C@H](NC(=O)OC(C)(C)C)C(=O)OCC#CI [Compound 5, N-t-butoxycarbonyl-O-benzyl-L-threonine iodopropargyl ester]	25 µg/mL	< 0.8 µg/mL	–	95%	50%	100%	0%	100%	90%	0%	> 50 µg/mL	> 50 µg/mL	6.2 µg/mL (≈ 13.1 µM)	> 100 µg/mL	> 100 µg/mL	> 100 µg/mL	63 µg/mL	75%	–	–	–
C#CCSC[C@H](NC(=O)OC(C)(C)C)C(=O)OCC#CI [Compound 6, N-t-butoxycarbonyl-S-propargyl-L-cysteine iodopropargyl ester]	–	–	100%	–	–	–	–	–	–	–	–	–	–	–	–	–	–	100%	–	–	% Control at 25 ppm BOC [15]: 0%; % Control at 25 ppm HEL [16]: 100%; % Control at 25 ppm PHY [4]: 100%; % Control at 25 ppm PIR ([5]; 25 ppm): 100%; % Control at 25 ppm PYU [6]: 100%; % Control at 25 ppm RHI [7]: 100%; % Control at 25 ppm XAN [9]: 0%; MIC ANIG ([10]; Aspergillus niger, serial dilutions from 50 ppm, read after 8 days of incubation): 12.5 ppm; MIC APUL ([10]; Aureobasidium pullulans, serial dilutions from 50 ppm, read after 8 days of incubation): 25 ppm; MIC GTRA ([10]; Gloeophyllum trabeum, serial dilutions from 50 ppm, read after 8 days of incubation): 3.2 ppm; MIC (G+) SAUR ([14]; M9G (minimal salts media with glucose)): >100 PPM and 64 PPM
NCC(=O)OCC#CI [Compound 7, glycine iodopropargyl ester trifluoroacetate]	–	–	–	100%	100%	100%	100%	100%	100%	0%	–	–	–	–	100 µg/mL	100 µg/mL	–	–	100%	100%	MIC [10, 20]: 25 µg/mL; MIC [10, 21]: 50 µg/mL; MIC [10, 22]: 12.5 µg/mL; MIC (G-) PSAE [12]: 125 PPM; MIC (G-) ECOL [13]: 64 PPM
C[C@H](N)C(=O)OCC#CI [Compound 8, L-alanine iodopropargyl ester trifluoroacetate]	–	–	–	100%	100%	100%	100%	100%	100%	0%	–	–	–	–	125 µg/mL	64 µg/mL	–	–	100%	100%	MIC (F) ANIG ([1]; trifluoroacetate): <4 PPM and 3 PPM; MIC (F) APUL ([2]; trifluoroacetate): <4 PPM and 2 PPM; MIC [10, 20]: 12.5 µg/mL; MIC [10, 21]: 25 µg/mL; MIC [10, 22]: 12.5 µg/mL; MIC (G-) PSAE [12]: >100 PPM; MIC (G-) ECOL [13]: >100 PPM
